Test results taken from patent publication US10920278B1, “Method to treat hypotension using vasopressin in certain genotypes” (Par Pharmaceutical, Inc., priority 2020, dated 2021).
Where two headings read alike, the source gives them in different places.

Key:
[1] = cited from earlier work
[2] = septic shock patients, VASST trial, Nakada et al.; cited from earlier work
[3] = Phase 1 open-label parallel-group PK study of IV vasopressin in healthy volunteers by LNPEP rs4869317 genotype; type: in vivo, human; conditions: for Css (Max) / Css (Min) / level at 1 h / clearance: plasma; for level at 1 h / clearance: both sexes, human, iv; for level at 1 h: 200 uU/kg/min; for clearance: 200 μU/kg/min
Excerpt: The primary objective of this study was to evaluate differences in plasma clearance of vasopressin following IV administration in subjects with the TT genotype (rs4869317) versus those with the AA/AT genotype of the LNPEP gene in healthy volunteers. The secondary objective of the study was to assess the safety and tolerability of vasopressin in healthy volunteers. This was a Phase 1, open-label, 2-arm, parallel group, PK study in healthy volunteers. Approximately 48 healthy male and female subjects were enrolled at a single center in the United States to achieve at least 19 evaluable subjects per genotype group. The study comprised a screening period, a treatment period, and a follow-up phone call.
Subjects were screened for general good health over a 28-day period. Screening evaluations included medical history, physical examination, vital sign measurement, 12-lead electrocardiogram (ECG), and clinical laboratory testing (hematology, serum chemistry, and urinalysis). In addition, subjects were advised of the diet and medication restrictions and agreed to conform to them.
As a part of screening, the LNPEP genotype (TT or AA/AT) of the subjects was determined. The target enrollment was 24 subjects with the SNP rs4869317 (TT genotype). As the control group, 24 subjects with the AA/AT genotype were approximately matched with respect to age (±5 years), sex, race, BMI (±5%), and creatinine clearance (±10 mL/min). An effort was made to enroll at least 4 female subjects in each genotype group. Subjects were matched during screening and confirmed at check-in on Day-2. Subjects were enrolled for participation in 2 genotype groups of a minimum size of 24 subjects per genotype group in order to meet a minimum of 19 evaluable subjects per genotype group.
A dose of 200 μU/kg/min vasopressin (VASOSTRICT®) was used for this healthy volunteer PK study. The dose roughly corresponds to 0.012 units/minute for a 60 kg individual. This value is approximately equal to the starting dose of 0.01 units/minute in the VASOSTRICT® prescribing information. Clearance in healthy volunteers (15 mL/min/kg) at the vasopressin dose of 200 μU/kg/minute planned for study is within this range. Blood samples for PK analysis were drawn at baseline and 5, 15, 30, and 60 minutes following infusion. If TT genotyped subjects cleared vasopressin at a faster rate, patients of this genotype may benefit from an altered dosing regimen.
Subjects who meet all inclusion and none of the exclusion criteria received vasopressin continuous IV infusion at a constant rate of 200 μU/kg/min for 60 minutes on Day 1. To minimize orthostatic hypotension, subjects remained supine throughout the duration of the infusion. Eligible subjects were admitted to the clinical unit on Day-2, i.e., two days prior to dosing, to ensure adequate hydration and to standardize sodium intake. Vasopressin levels were also be determined during this period. Subjects remained confined until completion of all study procedures. While in the clinical unit, subjects were fed a standard diet with a dietary sodium intake limited to 2300 mg per day and drank no less than 1.0 to 1.5 L of water per day in addition to usual consumed beverages.
Study drug was administered on the morning of Day 1 under standard fasting conditions (minimum of 10-hour overnight fast). Passive telemetry monitoring occurred during the infusion. One hour prior to dosing, each subject was given an oral water load of 20 mL/kg to be consumed within 30 minutes. Thereafter, a second 20 mL/kg volume of water was made available. Subjects continued to drink water at regular intervals through the next 90 minutes (end of the infusion). Subjects were asked to pass urine spontaneously within 15 minutes prior to the start of infusion. The fasting restriction continued until the end of the infusion.
Subjects remained in the clinical unit after the end of the infusion and were discharged the following day (Day 2). […]

[4] = cited from earlier work; remark: listed apart in the source
[5] = Table 1 overview of parameters, infusion rate 0.03 units/minute, TT vs AA/AT genotype patients; type: in vivo, human; conditions: for clearance / level at time molar: human, in vivo, 0.03 units/minute; for clearance: intravenous; for level at time molar: iv
[6] = AA/AT (n=12) vs TT (n=12), 60 minute continuous IV infusion 200 μU/kg/min
[7] = AA/AT genotype healthy volunteers (12 subjects), 200 μU/kg/min continuous IV infusion for 60 minutes
[8] = TT compared with AA/AT genotype
[9] = TT genotype healthy volunteers (12 subjects), 200 μU/kg/min continuous IV infusion for 60 minutes

SMILES: NC(=O)CC[C@@H]1NC(=O)[C@H](Cc2ccccc2)NC(=O)[C@H](Cc2ccc(O)cc2)NC(=O)[C@@H](N)CSSC[C@@H](C(=O)N2CCC[C@H]2C(=O)N[C@@H](CCCN=C(N)N)C(=O)NCC(N)=O)NC(=O)[C@H](CC(N)=O)NC1=O [vasopressin, Cyclo (1-6) L-Cysteinyl-L-Tyrosyl-L-Phenylalanyl-L-Glutaminyl-L-Asparaginyl-L-Cysteinyl-L-Prolyl-L-Arginyl-L-Glycinamide]
- dose excreted unchanged in urine ([1]; VASOSTRICT prescribing information 2019): about 6%
- apparent half-life ([1]; VASOSTRICT prescribing information, at these levels): < 10 min
- Clearance in healthy volunteers ([1]; vasopressin dose of 200 μU/kg/minute): 15 mL/min/kg
- vasopressin clearance, TT vs AA or AT genotyped patients (in words) [2]: increase in vasopressin clearance
- higher plasma clearance in AA/AT than TT rs4869317 genotype [3, 6]: 25.5%
- lower steady state concentration in AA/AT than TT rs4869317 genotype [3, 6]: 21.42%
- Css (Max) [3, 7]: 0.0414 ng/mL
- Css (Min) [3, 7]: 0.0101 ng/mL
- vasopressin clearance, TT vs AA/AT genotyped patients (in words) [3, 8]: lower vasopressin clearance
- vasopressin plasma concentrations, TT vs AA/AT genotyped patients (in words) [3, 8]: higher vasopressin plasma concentrations
- Css (Max) [3, 9]: 0.0861 ng/mL
- Css (Min) [3, 9]: 0.0171 ng/mL
- mean clearance in TT patients less than that of AA/AT patients ([3]; TT vs AA/AT genotype): about 20%
- mean steady state plasma concentration in TT patients higher than that of AA/AT patients ([3]; TT vs AA/AT genotype): about 27.4%
- level at 1 h ([3]; AA/AT genotype healthy volunteers (12 subjects), 200 μU/kg/min continuous IV infusion for 60 minutes, read-out: Css (Mean), concentration at steady state): 0.025 ng/mL
- level at 1 h ([3]; AA/AT genotype healthy volunteers (12 subjects), 200 μU/kg/min continuous IV infusion for 60 minutes, read-out: Css (Median)): 0.0251 ng/mL
- level at 1 h ([3]; AA/AT rs4869317 genotype (n = 12), 60 minute continuous IV infusion 200 μU/kg/min, read-out: Steady State Concentration at 60 minutes (Css)): 0.025 ng/mL
- level at 1 h ([3]; TT genotype healthy volunteers (12 subjects), 200 μU/kg/min continuous IV infusion for 60 minutes, read-out: Css (Mean), concentration at steady state): 0.0319 ng/mL
- level at 1 h ([3]; TT genotype healthy volunteers (12 subjects), 200 μU/kg/min continuous IV infusion for 60 minutes, read-out: Css (Median)): 0.0271 ng/mL
- level at 1 h ([3]; TT rs4869317 genotype (n = 12), 60 minute continuous IV infusion 200 μU/kg/min, read-out: Steady State Concentration at 60 minutes (Css)): 0.0319 ng/mL
- clearance ([3]; AA/AT genotype healthy volunteers (12 subjects), 200 μU/kg/min continuous IV infusion for 60 minutes, read-out: CL (Max)): 37.3 mL/min/kg
- clearance ([3]; AA/AT genotype healthy volunteers (12 subjects), 200 μU/kg/min continuous IV infusion for 60 minutes, read-out: CL (Mean)): 17.4 mL/min/kg
- clearance ([3]; AA/AT genotype healthy volunteers (12 subjects), 200 μU/kg/min continuous IV infusion for 60 minutes, read-out: CL (Median)): 15 mL/min/kg
- clearance ([3]; AA/AT genotype healthy volunteers (12 subjects), 200 μU/kg/min continuous IV infusion for 60 minutes, read-out: CL (Min)): 9.1 mL/min/kg
- clearance ([3]; AA/AT rs4869317 genotype (n = 12), 60 minute continuous IV infusion 200 μU/kg/min, read-out: Total Plasma Clearance (CL) Value): 17.4 mL/min/kg
- clearance ([3]; TT genotype healthy volunteers (12 subjects), 200 μU/kg/min continuous IV infusion for 60 minutes, read-out: CL (Max)): 22 mL/min/kg
- clearance ([3]; TT genotype healthy volunteers (12 subjects), 200 μU/kg/min continuous IV infusion for 60 minutes, read-out: CL (Mean)): 13.8 mL/min/kg
- clearance ([3]; TT genotype healthy volunteers (12 subjects), 200 μU/kg/min continuous IV infusion for 60 minutes, read-out: CL (Median)): 14 mL/min/kg
- clearance ([3]; TT genotype healthy volunteers (12 subjects), 200 μU/kg/min continuous IV infusion for 60 minutes, read-out: CL (Min)): 4.4 mL/min/kg
- clearance ([3]; TT rs4869317 genotype (n = 12), 60 minute continuous IV infusion 200 μU/kg/min, read-out: Total Plasma Clearance (CL) Value): 13.8 mL/min/kg
- rates of serious adverse events in AA genotype patients (in words) ([4]; septic shock patients who received vasopressin, Anantasit et al.): significantly higher rates of serious adverse events
- AVP blood levels, TT/TA vs AA genotype (in words) ([4]; septic shock patients, Anantasit et al. FIG. 2): statistically significant higher AVP blood levels
- % change in the pharmacokinetic parameters in AA/AT genotype patients vs. TT genotype patients [5]: <33%
- % increase in clearance in AA/AT genotype patients vs. TT genotype patients [5]: ≥46%
- clearance ([5]; read-out: Clearance in AA/AT genotype patients): 28.7 mL/min/kg
- clearance ([5]; read-out: Clearance in TT genotype patients): 19.7 mL/min/kg
- level at time molar ([5]; read-out: Concentration at steady state in AA/AT genotype patients): 3.17 pM
- level at time molar ([5]; read-out: Concentration at steady state in TT genotype patients): 4.7 pM
